Assay results from the supplement of paper PMC10307832.

Experiments:
Experiment in all cases: relative viability (nuclei count vs DMSO), 5 days (fraction); higher = more cells survive
XMD13-2 + Foretinib = compound: C1CC1C(=O)NC2=NNC3=C2C=CC(=C3)C4=CC(=CC=C4)C(=O)NC5CC5 [XMD13-2] + COc1cc2c(Oc3ccc(NC(=O)C4(C(=O)Nc5ccc(F)cc5)CC4)cc3F)ccnc2cc1OCCCN1CCOCC1 [Foretinib] (partner 0.25 µM)
Method in brief: (§1)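 Dosing by pin tool came one day after lung cancer cell lines were seeded in 1536-well plates, using either one drug or a fixed anchor-drug dose plus five library-drug doses (not always all listed) in √10 steps. After 5 days, nuclei were counted on 4× images. Relative viability is treated-well nuclei count divided by vehicle-well nuclei count, and values are medians of duplicate plates.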

ALW-II-49-7 + Dasatinib = compound: Cc1ccc(C(=O)Nc2cccc(C(F)(F)F)c2)cc1Nc1cncc(C(N)=O)c1 [ALW-II-49-7] + Cc1nc(Nc2ncc(C(=O)Nc3c(C)cccc3Cl)s2)cc(N2CCN(CCO)CC2)n1 [Dasatinib] (partner 0.075 µM)
Method in brief: as §1

ALW-II-49-7 + Vorinostat = compound: Cc1ccc(C(=O)Nc2cccc(C(F)(F)F)c2)cc1Nc1cncc(C(N)=O)c1 [ALW-II-49-7] + O=C(CCCCCCC(=O)Nc1ccccc1)NO [Vorinostat] (partner 1 µM)
Method in brief: as §1

Dasatinib + Bortezomib = compound: Cc1nc(Nc2ncc(C(=O)Nc3c(C)cccc3Cl)s2)cc(N2CCN(CCO)CC2)n1 [Dasatinib] + CC(C)C[C@H](NC(=O)[C@H](Cc1ccccc1)NC(=O)c1cnccn1)B(O)O [Bortezomib] (partner 0.002 µM)
Method in brief: as §1

Cell Line | relative viability (XMD13-2 + Foretinib; first compound 0.05 µM) | relative viability (XMD13-2 + Foretinib; first compound 0.1581 µM) | relative viability (XMD13-2 + Foretinib; first compound 0.5 µM) | relative viability (XMD13-2 + Foretinib; first compound 1.581 µM) | relative viability (XMD13-2 + Foretinib; first compound 5 µM) | relative viability (ALW-II-49-7 + Dasatinib; first compound 0.08 µM) | relative viability (ALW-II-49-7 + Dasatinib; first compound 0.253 µM) | relative viability (ALW-II-49-7 + Dasatinib; first compound 0.8 µM) | relative viability (ALW-II-49-7 + Dasatinib; first compound 2.53 µM) | relative viability (ALW-II-49-7 + Dasatinib; first compound 8 µM) | relative viability (ALW-II-49-7 + Vorinostat; first compound 0.08 µM) | relative viability (ALW-II-49-7 + Vorinostat; first compound 0.253 µM) | relative viability (ALW-II-49-7 + Vorinostat; first compound 0.8 µM) | relative viability (ALW-II-49-7 + Vorinostat; first compound 2.53 µM) | relative viability (ALW-II-49-7 + Vorinostat; first compound 8 µM) | relative viability (Dasatinib + Bortezomib; first compound 0.005 µM) | relative viability (Dasatinib + Bortezomib; first compound 0.01581 µM) | relative viability (Dasatinib + Bortezomib; first compound 0.05 µM) | relative viability (Dasatinib + Bortezomib; first compound 0.1581 µM) | relative viability (Dasatinib + Bortezomib; first compound 0.5 µM)
201T | 1.28 | 1.09 | 1.12 | 1.15 | 1.16 | 0.616 | 0.664 | 0.545 | 0.594 | 0.479 | 0.922 | 1.02 | 0.995 | 1.02 | 0.801 | 1.04 | 0.938 | 1.01 | 0.982 | 0.623
A549 | 1.08 | 0.972 | 0.902 | 0.965 | 0.97 |  |  |  |  |  |  |  |  |  |  |  |  |  |  | 
A-427 | 1.23 | 1.08 | 1.05 | 1.02 | 0.745 | 0.686 | 0.824 | 0.733 | 0.741 | 0.627 | 0.936 | 0.902 | 0.854 | 0.838 | 0.826 | 1 | 0.983 | 0.839 | 0.663 | 0.524
Calu-6 | 0.954 | 0.906 | 0.89 | 0.909 | 0.772 |  |  |  |  |  |  |  |  |  |  | 0.869 | 0.855 | 0.746 | 0.642 | 0.513
EBC-1 | 0.0838 | 0.0911 | 0.109 | 0.124 | 0.0963 |  |  |  |  |  |  |  |  |  |  | 0.583 | 0.459 | 0.486 | 0.49 | 0.436
HCC-44 |  |  |  |  |  |  |  |  |  |  | 1.14 | 1.11 | 1.11 | 1.12 | 1.09 | 0.857 | 0.857 | 0.993 | 0.894 | 0.45
IA-LM | 1.07 | 1.29 | 1.12 | 1.11 | 0.621 |  |  |  |  |  | 0.998 | 0.613 | 0.745 | 0.29 | 0.423 | 1.14 | 0.882 | 1.03 | 0.766 | 0.615
LK-2 | 1.45 | 0.959 | 1.06 | 1.16 | 1.16 |  | 0.271 | 0.252 | 0.31 | 0.336 | 0.327 | 0.315 | 0.225 |  | 0.247 |  |  |  |  | 
NCI-H358 | 0.805 | 0.767 | 0.904 | 0.685 | 0.335 | 0.151 | 0.159 | 0.173 | 0.192 | 0.286 | 1 | 0.694 | 0.805 | 0.574 | 0.447 |  |  |  |  | 
NCI-H522 |  |  |  |  |  | 0.979 | 0.81 | 1.05 | 0.772 | 0.987 | 0.824 | 1.04 | 0.824 | 0.834 | 0.94 |  |  |  |  | 
NCI-H1299 | 1.02 | 1.12 | 1.15 | 1.14 | 1.16 |  |  |  |  |  |  |  |  |  |  | 1.04 | 1.02 | 1.14 | 0.612 | 0.485
NCI-H1395 | 0.983 | 1.02 | 1.05 | 0.992 | 1 | 0.436 | 0.457 | 0.407 | 0.431 | 0.417 | 0.649 | 0.699 | 0.733 |  | 0.569 |  |  |  |  | 
NCI-H1563 | 0.883 | 1.06 | 0.99 | 0.961 | 0.866 | 0.442 | 0.466 | 0.441 | 0.477 | 0.486 |  |  |  |  |  | 0.703 | 0.607 | 0.632 | 0.647 | 0.562
NCI-H1623 | 0.898 | 0.864 | 0.892 | 0.824 | 0.947 | 0.465 | 0.531 | 0.618 | 0.532 | 0.479 |  |  |  |  |  |  |  |  |  | 
NCI-H1648 |  |  |  |  |  |  |  |  |  |  | 0.346 | 0.298 | 0.287 | 0.327 | 0.425 |  |  |  |  | 
NCI-H1703 | 0.303 | 0.411 |  | 0.336 | 0.393 |  |  |  |  |  |  |  |  |  |  | 0.285 | 0.22 | 0.247 | 0.18 | 0.121
NCI-H1792 |  |  |  |  |  | 0.896 | 0.757 | 0.876 | 0.355 | 0.732 |  |  |  |  |  | 0.932 | 0.897 | 0.898 | 0.681 | 0.505
NCI-H1793 | 0.84 |  | 0.966 | 0.791 | 0.68 | 0.398 | 0.387 | 0.296 | 0.348 | 0.406 | 0.816 | 0.811 | 0.616 | 0.798 | 0.431 |  |  |  |  | 
NCI-H1944 | 0.898 | 0.886 | 0.935 | 1.04 | 0.946 | 0.206 | 0.237 | 0.232 | 0.228 | 0.227 | 0.659 | 0.613 | 0.497 | 0.478 | 0.377 |  |  |  |  | 
NCI-H2170 | 0.937 | 0.97 | 1.03 | 0.9 | 0.984 | 0.725 | 0.531 | 0.608 | 0.512 | 0.614 | 0.917 | 0.921 | 0.841 | 0.796 | 0.867 |  |  |  |  | 
NCI-H2342 | 0.973 | 1.04 | 1.11 | 0.984 | 1.01 | 0.303 | 0.299 | 0.327 | 0.3 | 0.314 | 0.702 | 0.922 | 0.744 | 0.837 | 0.859 |  |  |  |  | 
SK-MES-1 | 0.866 | 0.967 | 1.06 | 0.87 | 1.15 | 0.353 | 0.351 | 0.296 | 0.33 | 0.222 | 1.14 | 1.16 | 1.05 | 1.04 | 0.938 |  |  |  |  | 
SW 900 | 1.1 | 0.963 | 0.922 | 0.963 | 0.677 | 0.607 | 0.565 | 0.559 | 0.565 | 0.478 | 0.539 | 0.554 |  | 0.517 | 0.289 |  |  |  |  | 
